Values of other authors as cited in patent US20170128595A1, “MICROBIAL GROWTH INDICATING MEDICAL DEVICES” (Indicator Systems International, Inc., priority 2013, published 2017).

Settings: fluorescein; ionization equilibrium gives pH-dependent absorption and emission over pH 5 to 9

## fluorescein
  pKa: 6.4
